Experiments:
Solubility test = assay type: physicochemical; settings: for Solubility: THF (volume of solvent in which the solid dissolved): 0.50 g solid added to THF at room temperature; for Solubility: THF (volume of solvent in which the solid dissolved) / Solubility: Acetone (volume of solvent in which the solid dissolved) / Solubility: Ethanol (volume of solvent in which the solid dissolved) / Solubility: Ethyl acetate (volume of solvent in which the solid dissolved) / Solubility: Methanol (volume of solvent in which the solid dissolved): shaking 30 seconds every 5 minutes, observed with eyes; for Solubility: Acetone (volume of solvent in which the solid dissolved): 0.50 g solid added to acetone at room temperature; for Solubility: Ethanol (volume of solvent in which the solid dissolved): 0.50 g solid added to ethanol at room temperature; for Solubility: Ethyl acetate (volume of solvent in which the solid dissolved): 0.50 g solid added to ethyl acetate at room temperature; for Solubility: Methanol (volume of solvent in which the solid dissolved): 0.50 g solid added to methanol at room temperature; for Solubility: Result: 0.50 g solid in the listed solvent volumes, room temperature, dissolved = no solid detected by human eyes
Description: The crystalline form C, D, F, H, J and L of azilsartan medoxomil potassium (0.50 g) was added to the solvent at room temperature. […] The solid was deemed as dissolved when no solid was detected in the mixture by human eyes.
The solubility data of crystalline forms C, D, F, H, J and L of azilsartan medoxomil potassium are as shown below.

Stability test = assay type: physicochemical
Description: The stability test of the crystalline form C was conducted under the following conditions:
Storage condition 1: stored under conditions of 40° C./RH75% in a sealed state for 3 and 6 months. […] During the whole test period, no change in total amount of impurities was recognized as compared with that before the beginning of the test.
Storage condition 2: stored under conditions of 40° C./RH75% in an unsealed state for 1 and 3 months.

Compound	Solubility: THF (volume of solvent in which the solid dissolved) (Solubility test)	Solubility: Acetone (volume of solvent in which the solid dissolved) (Solubility test)	Solubility: Ethanol (volume of solvent in which the solid dissolved) (Solubility test)	Solubility: Ethyl acetate (volume of solvent in which the solid dissolved) (Solubility test)	Solubility: Methanol (volume of solvent in which the solid dissolved) (Solubility test)	Solubility: Result (Solubility test)	conversion of the crystalline form into other polymorphs (Stability test; storage condition 1: 40° C./RH75%, sealed state, after six months)	change in total amount of impurities compared with before the beginning of the test (Stability test; storage condition 1: 40° C./RH75%, sealed state, whole test period (3 and 6 months))	total amount of impurities compared with before the beginning of the test (Stability test; storage condition 2: 40° C./RH75%, unsealed state, 1 and 3 months)	conversion of the crystalline form into other polymorphs (Stability test; storage condition 2: 40° C./RH75%, unsealed state, after three months)
CCOc1nc2cccc(C(=O)OCc3oc(=O)oc3C)c2n1Cc1ccc(-c2ccccc2-c2noc(=O)[n-]2)cc1.[K+] [Form C, azilsartan medoxomil potassium]	13 mL	8 mL	6 mL	10 mL	5 mL	dissolved	could not be confirmed	no change	increased	could not be confirmed
CCOc1nc2cccc(C(=O)OCc3oc(=O)oc3C)c2n1Cc1ccc(-c2ccccc2-c2noc(=O)[n-]2)cc1.[K+] [Form D, azilsartan medoxomil potassium]	16.5 ml^	9 mL	5 mL	12 mL	4 mL	dissolved	–	–	–	–
CCOc1nc2cccc(C(=O)OCc3oc(=O)oc3C)c2n1Cc1ccc(-c2ccccc2-c2noc(=O)[n-]2)cc1.[K+] [Form F, azilsartan medoxomil potassium]	15 mL	12 mL	6 mL	16 mL	4.5 ml^	dissolved	–	–	–	–
CCOc1nc2cccc(C(=O)OCc3oc(=O)oc3C)c2n1Cc1ccc(-c2ccccc2-c2noc(=O)[n-]2)cc1.[K+] [Form H, azilsartan medoxomil potassium]	14 mL	10 mL	8 mL	13 mL	6 mL	dissolved	–	–	–	–

Results, then the molecule that gave them:

Solubility: THF (volume of solvent in which the solid dissolved) (Solubility test)	Solubility: Acetone (volume of solvent in which the solid dissolved) (Solubility test)	Solubility: Ethanol (volume of solvent in which the solid dissolved) (Solubility test)	Solubility: Ethyl acetate (volume of solvent in which the solid dissolved) (Solubility test)	Solubility: Methanol (volume of solvent in which the solid dissolved) (Solubility test)	Solubility: Result (Solubility test)	conversion of the crystalline form into other polymorphs (Stability test; storage condition 1: 40° C./RH75%, sealed state, after six months)	change in total amount of impurities compared with before the beginning of the test (Stability test; storage condition 1: 40° C./RH75%, sealed state, whole test period (3 and 6 months))	total amount of impurities compared with before the beginning of the test (Stability test; storage condition 2: 40° C./RH75%, unsealed state, 1 and 3 months)	conversion of the crystalline form into other polymorphs (Stability test; storage condition 2: 40° C./RH75%, unsealed state, after three months)	Compound
12 mL	8 mL	5.5 ml^	11 mL	4 mL	dissolved	–	–	–	–	CCOc1nc2cccc(C(=O)OCc3oc(=O)oc3C)c2n1Cc1ccc(-c2ccccc2-c2noc(=O)[n-]2)cc1.[K+] [Form J, azilsartan medoxomil potassium]
17 mL	11 mL	6 mL	14 mL	5 mL	dissolved	–	–	–	–	CCOc1nc2cccc(C(=O)OCc3oc(=O)oc3C)c2n1Cc1ccc(-c2ccccc2-c2noc(=O)[n-]2)cc1.[K+] [Form L, azilsartan medoxomil potassium]

Source: patent publication US9403811B2, “Crystalline forms of azilsartan medoxomil potassium and preparation and uses thereof” (SUNSHINE LAKE PHARMA CO., LTD., priority 2012, dated 2016)
